How the values were obtained:
[1] = tested on: 6-Hz-induced psychomotor seizures in mice; experiment: 6 Hz (32 mA) seizure model; type: in vivo
Description: (§1) The experiments were conducted on adult male albino Swiss mice weighing 22–26 g. The animals were kept in colony cages under standardized laboratory conditions: natural light–dark cycle 12/12 h, temperature 20–24 °C, air humidity 45–65% and free access to tap water and food (chow pellets). After 7 days of adaptation to laboratory conditions, the animals were randomly assigned to experimental groups consisting of 8 mice. The experimental procedures described herein were approved by the Local Ethics Committee in Lublin, Poland (approval numbers: 71/2020 and 13/2021), and were conducted in accordance with EU Directive 2010/63/EU for animal experiments. All efforts were made to minimize animal suffering and to use only the number of animals necessary to produce reliable scientific data according to the 3Rs rule.
(§2) All substances (except PTZ and tetracaine hydrochloride dissolved in water for injections) were suspended in a 1% solution of Tween 80 (Sigma-Aldrich, Saint Louis, MO, USA) in water for injections (Baxter, Warszawa, Poland) or 0.9% NaCl. All drugs were injected intraperitoneally (i.p.) 30 min before all seizure models with 1 mL syringes as a single injection, in a volume of 10 mL/kg. The pretreatment time (30 min) before testing for KA-228 and KA-232 was chosen based on the time to peak of maximum anticonvulsant activity of KA-11 from our previous studies.
The 6-Hz-induced psychomotor seizures in mice were evoked by current (6 Hz, 0.2 ms rectangular pulse width, 32 mA, 3 s duration) generated by an S48 Square Pulse Stimulator and CCU1 Constant Current Unit (Grass Technologies, West Warwick, RI, USA). The animals were administered with increasing doses of KA-228 and KA-232, and the anticonvulsant activity of each drug was evaluated as the ED50. This experimental procedure has been described in detail in our previous studies.
(§3) The ED50 or TD50 values for tested substances in the acute animal models of seizures were calculated using the computer log-probit analysis. Subsequently, the ED50 and TD50 values (±SEM) were statistically analyzed using one-way analysis of variance (ANOVA) followed by the post hoc Dunnett’s test for multiple comparisons. Differences among values were considered statistically significant if p < 0.05. GraphPad Prism version 8 for Windows (GraphPad Software, San Diego, CA, USA) was used as a statistical software program. The results obtained from the acute ivPTZ test and grip strength test were evaluated by a Student’s t test. Fisher’s exact probability test was used to analyze protection from tonic forelimb and hindlimb extension in the ivPTZ test.

[2] = tested on: PTZ-induced clonic seizures in mice; experiment: scPTZ-induced convulsions; type: in vivo; details: i.p.
Description: as §1, §2
The PTZ-induced clonic seizures in mice were determined after sc administration of PTZ at a dose of 100 mg/kg. The animals were administered with increasing doses of KA-228 and KA-232, and the anticonvulsant activity of each drug was evaluated as the ED50 value. This experimental procedure has been described in detail in our previous studies.
as §3

Na^+ channel (site 2) = experiment: Radioligand binding, Na+ channel (site 2); design: species or system rat; details: 10 µM
Description: (§4) Dysfunction of both sodium and calcium ion channels is known to be one of the crucial reasons behind the pathogenesis of seizures. Consequently, these ion channels are molecular targets for several clinically important ASDs such as lacosamide, lamotrigine, carbamazepine, oxcarbazepine and compounds currently under preclinical and clinical studies. Thus, for KA-228 and KA-232, we tested herein their binding profile toward the aforementioned ion channels at concentrations of 10 and 100 µM (Table 3). […] Apart from in vitro studies focused on explaining the mechanism of action, KA-232 was additionally tested for its interaction with the potassium channel (hERG) which is recognized as one of the most important ‘off-targets’ responsible for harmful arrhythmogenic activity. Thus, the interaction of potential drug candidates with hERG must be excluded at an early stage of development.
(§5) Binding studies were carried out commercially in Eurofins Laboratories (Poitiers, France or New Taipei City, Taiwan).

[3] = tested on: Calcium Cav1.2 channels (dihydropyridine site, antagonist radioligand); experiment: Radioligand binding, Cav1.2 dihydropyridine site; design: species or system rat
Description: as §4, §5

[4] = tested on: Calcium Cav1.2 channels (diltiazem site, antagonist radioligand); experiment: Radioligand binding, Cav1.2 diltiazem site; design: species or system rat
Description: as §4, §5

[5] = tested on: Calcium Cav1.2 channel (verapamil site, antagonist radioligand); experiment: Radioligand binding, Cav1.2 verapamil site; design: species or system rat; details: 10 µM
Description: as §4, §5

[6] = biological target: T1, Calcium Cav2.2 channel (antagonist radioligand) (Rattus norvegicus, UniProt Q02294); experiment: Radioligand binding, Cav2.2 channel
T1 construct: rat cerebral cortex; tissue Eurofins Laboratories; host or cells: rat cerebral cortex
Description: as §4, §5

Potassium channel (hERG) = biological target: T2, Potassium channel (hERG) (Homo sapiens, UniProt Q12809); experiment: Radioligand binding, potassium channel (hERG); details: 100 µM; KA-11 value not published before
T2 construct: host or cells: HEK-293 cells
Description: as §4, §5

hERG potassium channel = biological target: T3, hERG potassium channel (Homo sapiens, UniProt Q12809); experiment: Radioligand binding, potassium channel (hERG); details: human, human recombinant HEK-293 cells expressing hERG, KA-11 value not published before, read-out: % Inhibition of Control Specific Binding
T3 construct: host or cells: HEK-293 cells
Description: as §4, §5

CYP3A4 = biological target: T4, CYP3A4 (Homo sapiens, UniProt P08684); experiment: CYP3A4 P450-Glo assay; type: in vitro ADME; details: 10 µM
T4 construct: purchased Promega, Madison, WI, USA
From the text: (§6) The assays and protocols used for evaluating the KA-232 ADME-Tox parameters were similar to those described previously for compound KA-11 [6].
(§7) Figure 9 The effect of KA-232 and the reference drug ketoconazole (KE) on CYP3A4 activity (A). The effect of KA-232 and the reference drug quinidine (QD) on CYP2D6 activity (B). The effect of KA-232 and the reference cytostatic drug doxorubicin (DX) on the HepG2 cell line (C) and the SH-SY5Y cell line (D) viability. Statistical significance (* p < 0.05, **** p < 0.0001) was analyzed by Graph Pad Prism 8 software using one-way ANOVA and Bonferroni’s Multiple Comparison Post Test.

CYP2D6 = biological target: T5, CYP2D6 (Homo sapiens, UniProt P10635); experiment: CYP2D6 P450-Glo assay; type: in vitro ADME
T5 construct: purchased Promega, Madison, WI, USA
From the text: as §6, §7

hepatoma HepG2 = experiment: Hepatotoxicity, HepG2 cell viability; type: cell-based, human
From the text: as §6, §7

in vitro = details: PAMPA
Description: Pre-coated PAMPA Plate System Gentest™ was purchased from Corning (Tewksbury, MA, USA). […] The luminescent signal and the absorbances were measured by using a microplate reader EnSpire PerkinElmer (Waltham, MA, USA). The LC/MS/MS analyses used in PAMPA and metabolic stability assays were obtained on Waters ACQUITY™ TQD system (Waters, Milford, CT, USA).

T1 sequence (Q02294 whole entry): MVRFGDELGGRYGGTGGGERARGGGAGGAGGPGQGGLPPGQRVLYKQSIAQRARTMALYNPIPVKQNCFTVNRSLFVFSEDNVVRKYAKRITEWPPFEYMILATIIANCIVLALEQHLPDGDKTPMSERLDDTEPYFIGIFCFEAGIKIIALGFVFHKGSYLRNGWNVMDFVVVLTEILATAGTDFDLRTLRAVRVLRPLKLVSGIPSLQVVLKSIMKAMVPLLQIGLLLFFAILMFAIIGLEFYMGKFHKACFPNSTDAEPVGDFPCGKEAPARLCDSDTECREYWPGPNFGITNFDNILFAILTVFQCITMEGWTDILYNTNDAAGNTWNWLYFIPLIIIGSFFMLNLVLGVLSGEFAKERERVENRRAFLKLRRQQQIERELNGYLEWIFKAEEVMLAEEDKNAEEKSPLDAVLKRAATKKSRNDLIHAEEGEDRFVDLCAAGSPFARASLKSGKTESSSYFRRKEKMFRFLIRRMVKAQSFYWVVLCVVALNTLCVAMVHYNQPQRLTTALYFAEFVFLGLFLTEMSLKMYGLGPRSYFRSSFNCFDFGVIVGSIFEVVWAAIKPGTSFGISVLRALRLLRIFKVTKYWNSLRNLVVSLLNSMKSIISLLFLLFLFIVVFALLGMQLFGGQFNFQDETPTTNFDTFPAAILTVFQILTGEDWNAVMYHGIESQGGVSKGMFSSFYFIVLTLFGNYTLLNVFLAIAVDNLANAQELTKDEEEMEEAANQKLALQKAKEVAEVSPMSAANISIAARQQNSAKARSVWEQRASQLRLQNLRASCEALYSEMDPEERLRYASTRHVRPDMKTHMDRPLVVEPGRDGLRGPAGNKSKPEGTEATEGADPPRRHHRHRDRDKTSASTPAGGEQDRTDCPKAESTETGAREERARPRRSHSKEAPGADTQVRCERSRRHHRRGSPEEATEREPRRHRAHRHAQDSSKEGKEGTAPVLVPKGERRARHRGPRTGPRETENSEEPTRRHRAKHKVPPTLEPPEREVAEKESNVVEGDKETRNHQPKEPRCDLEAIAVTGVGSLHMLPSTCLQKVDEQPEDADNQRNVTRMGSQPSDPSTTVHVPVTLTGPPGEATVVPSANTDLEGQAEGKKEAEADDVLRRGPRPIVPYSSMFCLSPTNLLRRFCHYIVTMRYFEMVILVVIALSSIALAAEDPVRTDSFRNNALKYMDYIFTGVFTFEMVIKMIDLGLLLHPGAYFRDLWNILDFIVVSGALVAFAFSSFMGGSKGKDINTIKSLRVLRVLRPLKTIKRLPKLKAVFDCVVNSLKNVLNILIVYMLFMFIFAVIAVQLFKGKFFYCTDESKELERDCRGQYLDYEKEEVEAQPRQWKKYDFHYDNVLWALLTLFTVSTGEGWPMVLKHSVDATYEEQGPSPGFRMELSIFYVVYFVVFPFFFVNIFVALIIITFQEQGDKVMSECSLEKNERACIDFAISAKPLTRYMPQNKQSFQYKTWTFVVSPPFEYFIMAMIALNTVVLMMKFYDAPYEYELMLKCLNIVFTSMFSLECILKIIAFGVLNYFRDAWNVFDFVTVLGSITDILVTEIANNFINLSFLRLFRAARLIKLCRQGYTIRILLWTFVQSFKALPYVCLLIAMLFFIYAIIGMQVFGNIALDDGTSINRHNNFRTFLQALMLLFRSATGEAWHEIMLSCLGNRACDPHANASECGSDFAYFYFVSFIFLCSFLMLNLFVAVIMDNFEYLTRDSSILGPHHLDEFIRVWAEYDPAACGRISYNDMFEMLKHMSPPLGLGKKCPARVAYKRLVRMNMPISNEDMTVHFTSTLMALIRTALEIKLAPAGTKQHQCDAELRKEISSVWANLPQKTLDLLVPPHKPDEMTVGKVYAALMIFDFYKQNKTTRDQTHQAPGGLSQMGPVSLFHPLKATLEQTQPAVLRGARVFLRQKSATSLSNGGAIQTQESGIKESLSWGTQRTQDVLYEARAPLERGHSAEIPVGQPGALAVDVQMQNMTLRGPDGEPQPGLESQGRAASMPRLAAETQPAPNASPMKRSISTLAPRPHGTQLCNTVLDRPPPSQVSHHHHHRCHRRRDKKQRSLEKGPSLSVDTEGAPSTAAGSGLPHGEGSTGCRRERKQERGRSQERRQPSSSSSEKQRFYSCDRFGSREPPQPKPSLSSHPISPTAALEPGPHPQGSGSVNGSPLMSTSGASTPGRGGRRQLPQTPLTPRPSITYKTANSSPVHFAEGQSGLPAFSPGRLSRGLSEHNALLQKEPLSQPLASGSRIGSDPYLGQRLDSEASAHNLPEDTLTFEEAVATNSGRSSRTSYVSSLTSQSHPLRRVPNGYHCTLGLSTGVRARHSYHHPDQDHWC
T5 sequence (P10635 whole entry): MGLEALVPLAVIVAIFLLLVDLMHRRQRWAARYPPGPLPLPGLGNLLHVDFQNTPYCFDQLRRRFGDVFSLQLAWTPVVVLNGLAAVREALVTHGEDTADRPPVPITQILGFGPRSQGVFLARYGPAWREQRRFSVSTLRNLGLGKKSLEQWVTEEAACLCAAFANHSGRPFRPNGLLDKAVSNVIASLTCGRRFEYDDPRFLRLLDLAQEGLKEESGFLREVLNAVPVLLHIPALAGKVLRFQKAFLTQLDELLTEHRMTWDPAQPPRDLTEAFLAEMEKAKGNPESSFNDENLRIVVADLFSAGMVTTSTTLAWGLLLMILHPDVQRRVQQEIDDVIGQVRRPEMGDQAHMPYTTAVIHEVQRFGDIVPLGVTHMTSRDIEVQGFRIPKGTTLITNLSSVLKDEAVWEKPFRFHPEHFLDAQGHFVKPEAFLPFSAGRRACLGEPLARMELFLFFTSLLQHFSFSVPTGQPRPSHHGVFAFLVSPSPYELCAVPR
T4 sequence (P08684 whole entry): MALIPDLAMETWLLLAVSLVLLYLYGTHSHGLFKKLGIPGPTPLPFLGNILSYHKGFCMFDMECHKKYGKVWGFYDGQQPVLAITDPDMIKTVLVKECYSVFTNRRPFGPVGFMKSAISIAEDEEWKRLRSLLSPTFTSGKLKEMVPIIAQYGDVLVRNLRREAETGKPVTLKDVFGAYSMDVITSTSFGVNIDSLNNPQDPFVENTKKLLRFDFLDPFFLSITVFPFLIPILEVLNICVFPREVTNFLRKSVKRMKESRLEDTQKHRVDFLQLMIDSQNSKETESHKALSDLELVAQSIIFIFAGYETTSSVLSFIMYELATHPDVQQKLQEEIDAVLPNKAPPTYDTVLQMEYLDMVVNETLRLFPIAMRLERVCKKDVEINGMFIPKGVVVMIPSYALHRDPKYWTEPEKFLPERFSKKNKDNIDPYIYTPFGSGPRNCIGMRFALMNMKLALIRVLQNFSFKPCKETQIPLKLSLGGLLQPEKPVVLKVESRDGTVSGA
T2 sequence (Q12809 whole entry): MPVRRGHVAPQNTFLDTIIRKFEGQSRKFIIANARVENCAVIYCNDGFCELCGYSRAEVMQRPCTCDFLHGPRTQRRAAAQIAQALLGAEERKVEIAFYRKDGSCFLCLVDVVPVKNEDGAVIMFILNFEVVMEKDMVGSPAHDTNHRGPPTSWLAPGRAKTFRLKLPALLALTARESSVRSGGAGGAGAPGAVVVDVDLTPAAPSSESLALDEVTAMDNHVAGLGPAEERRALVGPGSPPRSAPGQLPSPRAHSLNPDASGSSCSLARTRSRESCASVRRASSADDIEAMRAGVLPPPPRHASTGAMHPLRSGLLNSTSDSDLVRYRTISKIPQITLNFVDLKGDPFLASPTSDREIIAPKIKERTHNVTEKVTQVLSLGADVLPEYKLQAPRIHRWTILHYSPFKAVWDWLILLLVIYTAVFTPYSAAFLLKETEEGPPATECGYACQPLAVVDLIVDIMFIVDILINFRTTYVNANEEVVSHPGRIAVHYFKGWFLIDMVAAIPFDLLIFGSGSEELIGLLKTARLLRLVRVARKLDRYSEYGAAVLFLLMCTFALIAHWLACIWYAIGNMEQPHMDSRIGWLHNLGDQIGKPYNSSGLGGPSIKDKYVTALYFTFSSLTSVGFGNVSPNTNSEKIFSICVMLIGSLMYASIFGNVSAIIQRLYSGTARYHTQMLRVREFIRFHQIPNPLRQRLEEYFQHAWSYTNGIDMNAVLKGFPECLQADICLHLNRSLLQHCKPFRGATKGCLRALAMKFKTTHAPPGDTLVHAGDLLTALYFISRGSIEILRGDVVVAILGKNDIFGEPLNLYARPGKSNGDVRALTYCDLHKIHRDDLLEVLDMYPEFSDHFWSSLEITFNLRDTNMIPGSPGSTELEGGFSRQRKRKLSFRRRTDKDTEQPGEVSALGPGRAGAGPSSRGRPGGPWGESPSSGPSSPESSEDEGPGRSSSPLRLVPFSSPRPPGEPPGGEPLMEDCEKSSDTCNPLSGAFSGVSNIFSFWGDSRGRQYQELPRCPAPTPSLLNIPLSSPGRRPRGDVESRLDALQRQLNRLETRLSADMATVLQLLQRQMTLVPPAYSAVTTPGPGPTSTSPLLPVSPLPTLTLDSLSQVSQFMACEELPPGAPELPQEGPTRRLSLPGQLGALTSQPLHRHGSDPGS

## CC(C(=O)N1CCN(c2cccc(C(F)(F)F)c2)CC1)N1C(=O)CC(N(C)C)C1=O.Cl (stereo not drawn) [KA-232, 3-(Dimethylamino)-1-(1-oxo-1-(4-(3-(trifluoromethyl)phenyl)piperazin-1-yl)propan-2-yl)pyrrolidine-2,5-dione hydrochloride]
[1]; Mus musculus, ip, 30 min before test, read-out: ED50 6 Hz ± SD
  ED50: 26.5 ± 33.5 mg/kg
[1]; i.p.
  TI (TD50/ED50), 6 Hz: 6.14
[2]; Mus musculus, scPTZ 100 mg/kg, 30 min before test, read-out: ED50 PTZ ± SD
  ED50: 59.3 ± 78.2 mg/kg
[2]; scPTZ
  TI (TD50/ED50), PTZ: 2.75
Na^+ channel (site 2)
  % Inhibition of Control Specific Binding: 3.8%
[3]; 10 µM
  % Inhibition of Control Specific Binding: −6.3%
[3]; 100 µM
  % Inhibition of Control Specific Binding: 18.5%
[4]; 10 µM
  % Inhibition of Control Specific Binding: −1.8%
[4]; 100 µM
  % Inhibition of Control Specific Binding: 17.5%
[5]
  % Inhibition of Control Specific Binding: −2.8 (10) %
[6]; 10 µM
  % Inhibition of Control Specific Binding: did not interact
[6]; read-out: % Inhibition of Control Specific Binding
  inhibition at 10 µM: 10.6%
Potassium channel (hERG)
  % Inhibition of Control Specific Binding: did not interact
hERG potassium channel
  inhibition at 60 min, 100 µM: 18.3%
CYP3A4
  CYP3A4 activity (% of control ± SD): 86.77 ± 5.71 % of control
CYP2D6; 10 µM
  CYP2D6 activity (% of control ± SD): 100.96 ± 2.57 % of control
CYP2D6; at 0.1 and 1 µM
  effect on CYP2D6 activity: slight induction
Hepatoma HepG2; 10 µM
  HepG2 viability (% of control ± SD): 89.44 ± 10.22 % of control
Hepatoma HepG2; 100 µM
  HepG2 cell viability: approximately 78 % of control
other
  melting point: 141.4 to 143.5 °C
In vitro
  Papp at 5 h: 10.2 ± 1.65 ×10⁻⁶ cm/s

Reference: PMC10179080, “In Vivo and In Vitro Characterization of Close Analogs of Compound KA-11, a New Antiseizure Drug Candidate” (International Journal of Molecular Sciences, 2023)
